32 compounds from patent US7034035B2, “Fungicidal mono-, bi-, and tri-cycloheteroalkyl amides and their compositions, methods of use and preparation” (priority 1999, dated 2006) can be followed below.

Test [1] concerns Rhizoctonia solani (RHIZSO). The experiment in a line: microbe, parasite or virus in culture. Type of test: cell-based.
The test system of test [2] is Ustilago maydis (USTIMA). The experiment in a line: microbe, parasite or virus in culture. It counts as cell-based.
Also: test concentration or dose not given here.

As to `COc1ccnc(C(=O)NC2CCC[C@H]3[C@H]4CC[C@H](C4)[C@@H]23)c1O` (stereo partly drawn) [Compound 291], the “RHIZSO in vitro Growth Inhibition” value in test [1] is “+ (key: +: at least 80% growth inhibition; −: less than 80% growth inhibition)”. The “USTIMA in vitro Growth Inhibition” value in test [2] is given as “− (key: +: at least 80% growth inhibition; −: less than 80% growth inhibition)”.
The matching figures for `O=C(NC1CCC(O)CC1)c1ncccc1O` (stereo not drawn) [Compound 208]: “− (key: +: at least 80% growth inhibition; −: less than 80% growth inhibition)” and “− (key: +: at least 80% growth inhibition; −: less than 80% growth inhibition)”.
For `C[C@@H](NC(=O)c1ncccc1O)c1cccc2ccccc12` [Compound 231], in test [1], the “RHIZSO in vitro Growth Inhibition” value was “− (key: +: at least 80% growth inhibition; −: less than 80% growth inhibition)”. Besides, in test [2], the “USTIMA in vitro Growth Inhibition” value is on record as “− (key: +: at least 80% growth inhibition; −: less than 80% growth inhibition)”.
`COc1ccnc(C(=O)NC/C=C(\C)CCC=C(C)C)c1O` [Compound 242]: the “RHIZSO in vitro Growth Inhibition” value in test [1] is “+ (key: +: at least 80% growth inhibition; −: less than 80% growth inhibition)”. Further, the “USTIMA in vitro Growth Inhibition” value in test [2] is recorded as “+ (key: +: at least 80% growth inhibition; −: less than 80% growth inhibition)”.
For the compound `CCCCC1(C)CC(NC(=O)c2nccc(OC)c2O)CC(C)(C)C1` (stereo not drawn) [Compound 253], the “RHIZSO in vitro Growth Inhibition” value in test [1] was “− (key: +: at least 80% growth inhibition; −: less than 80% growth inhibition)”. The “USTIMA in vitro Growth Inhibition” value in test [2] is recorded as “− (key: +: at least 80% growth inhibition; −: less than 80% growth inhibition)”.
For `COc1ccnc(C(=O)N[C@H]2O[C@@H](C)[C@@H](OC(C)=O)[C@@H](OC(C)=O)[C@@H]2OC(C)=O)c1O` [Compound 333], in test [1], the “RHIZSO in vitro Growth Inhibition” value was “− (key: +: at least 80% growth inhibition; −: less than 80% growth inhibition)”. Besides, in test [2], the “USTIMA in vitro Growth Inhibition” value is “− (key: +: at least 80% growth inhibition; −: less than 80% growth inhibition)”.
As for `COCCCc1ccc2c(c1)OC(C)C(NC(=O)c1nccc(OC)c1O)C2=O` (stereo not drawn) [Compound 322], the “RHIZSO in vitro Growth Inhibition” value in test [1] was “+ (key: +: at least 80% growth inhibition; −: less than 80% growth inhibition)”. The “USTIMA in vitro Growth Inhibition” value in test [2] is listed as “− (key: +: at least 80% growth inhibition; −: less than 80% growth inhibition)”.
On the same counts, the results for `COc1ccnc(C(=O)NC2CCN(C(=O)CCc3ccccc3)CC2)c1O` [Compound 309] are “− (key: +: at least 80% growth inhibition; −: less than 80% growth inhibition)” and “− (key: +: at least 80% growth inhibition; −: less than 80% growth inhibition)”.
In the case of `COc1ccnc(C(=O)N[C@H]2CC3CC2C[C@@H]3COCc2cccc(C(F)(F)F)c2)c1O` (stereo partly drawn) [Compound 296], the “RHIZSO in vitro Growth Inhibition” value in test [1] is listed as “+ (key: +: at least 80% growth inhibition; −: less than 80% growth inhibition)”. Moreover, in test [2], the “USTIMA in vitro Growth Inhibition” value is reported as “− (key: +: at least 80% growth inhibition; −: less than 80% growth inhibition)”.
`COc1ccnc(C(=O)NC2CCC(Sc3ccccc3)CC2)c1O` (stereo not drawn) [Compound 275]: the “RHIZSO in vitro Growth Inhibition” value in test [1] is reported as “+ (key: +: at least 80% growth inhibition; −: less than 80% growth inhibition)”. Further, in test [2], the “USTIMA in vitro Growth Inhibition” value is reported as “− (key: +: at least 80% growth inhibition; −: less than 80% growth inhibition)”.
As for `Cc1ccnc(C(=O)NC2CC(C)(C)CC(C)(C)C2)c1O` [Compound 236], the “RHIZSO in vitro Growth Inhibition” value in test [1] was “− (key: +: at least 80% growth inhibition; −: less than 80% growth inhibition)”. For the same compound, the “USTIMA in vitro Growth Inhibition” value in test [2] is on record as “− (key: +: at least 80% growth inhibition; −: less than 80% growth inhibition)”.
For `COc1ccnc(C(=O)NC2CC(C(F)(F)F)CC(C(F)(F)F)C2)c1O` (stereo not drawn) [Compound 256], the “RHIZSO in vitro Growth Inhibition” value in test [1] is recorded as “− (key: +: at least 80% growth inhibition; −: less than 80% growth inhibition)”. The “USTIMA in vitro Growth Inhibition” value in test [2] is reported as “− (key: +: at least 80% growth inhibition; −: less than 80% growth inhibition)”.
In the case of `CC(=O)OC1CCC(NC(=O)c2ncccc2O)CC1` (stereo not drawn) [Compound 209], the “RHIZSO in vitro Growth Inhibition” value in test [1] is reported as “− (key: +: at least 80% growth inhibition; −: less than 80% growth inhibition)”. The “USTIMA in vitro Growth Inhibition” value in test [2] is “− (key: +: at least 80% growth inhibition; −: less than 80% growth inhibition)”.
In the case of `COc1ccnc(C(=O)N[C@H]2CC3OC2[C@H](C)[C@@H](OCc2ccccc2)[C@H]3C)c1O` (stereo partly drawn) [Compound 321], the “RHIZSO in vitro Growth Inhibition” value in test [1] is “− (key: +: at least 80% growth inhibition; −: less than 80% growth inhibition)”. Also, in test [2], the “USTIMA in vitro Growth Inhibition” value was “− (key: +: at least 80% growth inhibition; −: less than 80% growth inhibition)”.
With `COc1ccnc(C(=O)NC2CCc3ccccc3C2=O)c1O` (stereo not drawn) [Compound 285], the “RHIZSO in vitro Growth Inhibition” value in test [1] is listed as “+ (key: +: at least 80% growth inhibition; −: less than 80% growth inhibition)”. Besides, the “USTIMA in vitro Growth Inhibition” value in test [2] is “− (key: +: at least 80% growth inhibition; −: less than 80% growth inhibition)”.
On the same counts, the results for `O=C(NCc1cccc2ccccc12)c1ncccc1O` [Compound 228] are “− (key: +: at least 80% growth inhibition; −: less than 80% growth inhibition)” and “− (key: +: at least 80% growth inhibition; −: less than 80% growth inhibition)”.
For `COc1ccnc(C(=O)NC2C3CSC2CN(Cc2ccccc2)C3)c1O` (stereo not drawn) [Compound 325], the “RHIZSO in vitro Growth Inhibition” value in test [1] was “− (key: +: at least 80% growth inhibition; −: less than 80% growth inhibition)”. Moreover, in test [2], the “USTIMA in vitro Growth Inhibition” value is on record as “− (key: +: at least 80% growth inhibition; −: less than 80% growth inhibition)”.
`O=C(Nc1cccc(Cl)c1)c1ncccc1O` [Compound 212]: the “RHIZSO in vitro Growth Inhibition” value in test [1] is given as “− (key: +: at least 80% growth inhibition; −: less than 80% growth inhibition)”. Moreover, the “USTIMA in vitro Growth Inhibition” value in test [2] is recorded as “− (key: +: at least 80% growth inhibition; −: less than 80% growth inhibition)”.
As for `COc1ccnc(C(=O)NC2CC(C)(C)C(OC(=O)c3ccccc3)C(C)(C)C2)c1O` (stereo not drawn) [Compound 268], the “RHIZSO in vitro Growth Inhibition” value in test [1] is on record as “− (key: +: at least 80% growth inhibition; −: less than 80% growth inhibition)”. In addition, the “USTIMA in vitro Growth Inhibition” value in test [2] is given as “− (key: +: at least 80% growth inhibition; −: less than 80% growth inhibition)”.
Take `COc1ccnc(C(=O)N[C@H]2CC[C@@H](Oc3ccc(C(F)(F)F)cc3)CC2)c1O` [Compound 271]: in test [1], the “RHIZSO in vitro Growth Inhibition” value was “+ (key: +: at least 80% growth inhibition; −: less than 80% growth inhibition)”. Further, the “USTIMA in vitro Growth Inhibition” value in test [2] was “+ (key: +: at least 80% growth inhibition; −: less than 80% growth inhibition)”.
For the compound `COc1ccnc(C(=O)NC(C)c2ccc(C(F)(F)F)cc2)c1O` (stereo not drawn) [Compound 247], the “RHIZSO in vitro Growth Inhibition” value in test [1] is listed as “− (key: +: at least 80% growth inhibition; −: less than 80% growth inhibition)”. In addition, the “USTIMA in vitro Growth Inhibition” value in test [2] is listed as “− (key: +: at least 80% growth inhibition; −: less than 80% growth inhibition)”.
With `O=C(NCC1CCCCC1)c1ncccc1O` [Compound 202], the “RHIZSO in vitro Growth Inhibition” value in test [1] is given as “− (key: +: at least 80% growth inhibition; −: less than 80% growth inhibition)”. In addition, the “USTIMA in vitro Growth Inhibition” value in test [2] was “− (key: +: at least 80% growth inhibition; −: less than 80% growth inhibition)”.
On to `COc1ccnc(C(=O)N[C@@H]2CCCC[C@H]2SC)c1O` [Compound 273], for which the “RHIZSO in vitro Growth Inhibition” value in test [1] is “− (key: +: at least 80% growth inhibition; −: less than 80% growth inhibition)”. In addition, the “USTIMA in vitro Growth Inhibition” value in test [2] is reported as “− (key: +: at least 80% growth inhibition; −: less than 80% growth inhibition)”.
Turning to `COc1ccnc(C(=O)N[C@@H]2CC3CC2[C@@H](C(=O)OCCc2ccccc2)[C@H]3C(=O)OCC(C)C)c1O` (stereo partly drawn) [Compound 301], the “RHIZSO in vitro Growth Inhibition” value in test [1] is given as “+ (key: +: at least 80% growth inhibition; −: less than 80% growth inhibition)”. Besides, the “USTIMA in vitro Growth Inhibition” value in test [2] is listed as “− (key: +: at least 80% growth inhibition; −: less than 80% growth inhibition)”.
On the same counts, the results for `O=C(NCCc1ccc(Cl)cc1)c1ncccc1O` [Compound 233, N-(2-(4-Chlorophenyl)Ethyl)-3-Hydroxypyridine-2-Carboxamide] are “− (key: +: at least 80% growth inhibition; −: less than 80% growth inhibition)” and “+ (key: +: at least 80% growth inhibition; −: less than 80% growth inhibition)”.
On the same counts, the results for `CCCCCCCCCNC(=O)c1ncccc1O` [Compound 201] are “− (key: +: at least 80% growth inhibition; −: less than 80% growth inhibition)” and “− (key: +: at least 80% growth inhibition; −: less than 80% growth inhibition)”.
The matching figures for `COc1ccnc(C(=O)N[C@H]2CC(C)(C)[C@H](O)C(C)(C)C2)c1O` [Compound 264, trans-4-Hydroxy-3,3,5,5-Tetramethylpicolinamide]: “− (key: +: at least 80% growth inhibition; −: less than 80% growth inhibition)” and “− (key: +: at least 80% growth inhibition; −: less than 80% growth inhibition)”.
On to `COc1ccnc(C(=O)NC2CC(C)(C)C(OC)C(C)(C)C2)c1O` (stereo not drawn) [Compound 265], for which the “RHIZSO in vitro Growth Inhibition” value in test [1] is reported as “− (key: +: at least 80% growth inhibition; −: less than 80% growth inhibition)”. Moreover, the “USTIMA in vitro Growth Inhibition” value in test [2] is given as “− (key: +: at least 80% growth inhibition; −: less than 80% growth inhibition)”.
As for `Cc1ccc(CNC(=O)c2ncccc2O)cc1` [Compound 223], the “RHIZSO in vitro Growth Inhibition” value in test [1] is listed as “− (key: +: at least 80% growth inhibition; −: less than 80% growth inhibition)”. Besides, the “USTIMA in vitro Growth Inhibition” value in test [2] is reported as “+ (key: +: at least 80% growth inhibition; −: less than 80% growth inhibition)”.
Regarding `COc1ccnc(C(=O)NC2CC(c3ccco3)CC(C)(C)C2)c1O` (stereo not drawn) [Compound 258], in test [1], the “RHIZSO in vitro Growth Inhibition” value is “− (key: +: at least 80% growth inhibition; −: less than 80% growth inhibition)”. The “USTIMA in vitro Growth Inhibition” value in test [2] is listed as “− (key: +: at least 80% growth inhibition; −: less than 80% growth inhibition)”.
With `O=C(OC1CCC(NC(=O)c2ncccc2O)CC1)c1ccccc1` (stereo not drawn) [Compound 211], the “RHIZSO in vitro Growth Inhibition” value in test [1] is listed as “− (key: +: at least 80% growth inhibition; −: less than 80% growth inhibition)”. Besides, in test [2], the “USTIMA in vitro Growth Inhibition” value was “− (key: +: at least 80% growth inhibition; −: less than 80% growth inhibition)”.
With `COc1ccnc(C(=O)NC2CCN(C(=O)c3ccccc3)CC2)c1O` [Compound 308], the “USTIMA in vitro Growth Inhibition” value in test [2] is listed as “− (key: +: at least 80% growth inhibition; −: less than 80% growth inhibition)”.
